Holding throughout (assay): DTP human tumour cell line panel, 48 h
The test system of experiment [1] is SN12C renal.
Experiment [2] deals with SNB-75 CNS.
Experiment [3] deals with OVCAR-4 ovarian.
Experiment [4] deals with UACC-257 melanoma.
Experiment [5] concerns MOLT-4 leukemia.
Experiment [6] concerns HCT-15 colon.
Experiment [7] deals with M14 melanoma.
Experiment [8] deals with HT29 colon.
Experiment [9] deals with SF-268 CNS.
Experiment [10] deals with SK-MEL-5 melanoma.

Several values for one entry are separate records, joined by “and”; a condition that tells them apart may be missing. Identical values can stand only once.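 48-hour exposure; five concentrations; linearly interpolated endpoints. GI50 = concentration required for 50% inhibition of growth. The concentration for full growth arrest is given as TGI.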 Where a SMILES comes first, the peptide text is derived from it. The star is where a group is joined. Boc = CC(C)(C)OC(=O)*

Results on eight compounds are retold here after PubChem BioAssay (NCI).

What is called GI50 is the concentration giving 50% growth inhibition. The term TGI denotes the concentration giving total growth inhibition. A lower TGI goes with more potent growth arrest. On to `Cc1ccc(Nc2oc(-c3ccccc3)nc2[P+](c2ccccc2)(c2ccccc2)c2ccccc2)cc1`, for which the GI50 was 0.888 µM in [1]; 1.15 µM in [2]; 0.357 µM in [3]; 0.718 µM in experiment [4]; 0.563 µM in experiment [5]; 0.64 µM in [6]. Also, the GI50 in experiment [7] was 0.728 µM; in experiment [8], 0.38 µM; in experiment [9], 1.56 µM; in experiment [10] it was 0.493 µM. In addition, the TGI in experiment [1] is 2.51 µM; in experiment [2], 3.71 µM; in experiment [3], 2.07 µM; in experiment [4], 2.75 µM; in experiment [5] it was 2.52 µM; in [6], 2.16 µM. Besides, the TGI in experiment [7] was 2.11 µM; in experiment [8], 1.59 µM; in experiment [9] it was 4.9 µM; in [10] it was 1.4 µM.
Consider `C#Cc1nc(Nc2cc(C)[nH]n2)c2ccccc2n1`, for which the GI50 in experiment [1] was 0.236 µM; in [2], 0.167 µM; in [3], 0.347 µM; in experiment [4], 0.2 µM; in [5] it was 0.25 µM; in [6], 0.205 µM. The GI50 in [7] is 0.232 µM; in experiment [8], 0.356 µM; in experiment [9] it was 0.313 µM; in experiment [10], 0.139 µM. Besides, the TGI in experiment [1] was 0.726 µM; in experiment [2], 0.513 µM; in experiment [4], 0.631 µM; in experiment [5], 0.685 µM; in [6] it was 0.474 µM; in [7], 0.559 µM. Further, the TGI in experiment [8] was 11.3 µM; in [9], 1.11 µM; in [10] it was 0.28 µM.
With `CN(C)C/C=C/C(=O)Nc1cc2c(Nc3ccc(F)c(Cl)c3)ncnc2cc1O[C@H]1CCOC1`, the GI50 in experiment [1] is 1.46 µM and 0.576 µM; in experiment [2], 1.48 µM and 0.983 µM; in experiment [3], 0.915 µM and 1.27 µM; in [4], 1.46 µM and 3.34 µM; in experiment [5], 2.43 µM and 1.45 µM; in experiment [6] it was 1.59 µM and 1.33 µM. For the same compound, the GI50 was 1.39 µM and 1.42 µM in [7]; 0.815 µM and 0.756 µM in [8]; 2.03 µM and 1.82 µM in [9]; 1.31 µM and 2.11 µM in experiment [10]. Further, the TGI was 14.8 µM and > 10 µM in experiment [1]; 10.7 µM and 8.33 µM in experiment [2]; 12.3 µM and > 10 µM in [3]; 3.09 µM and > 10 µM in experiment [4]; 11.3 µM and 7.24 µM in experiment [5]; 12.1 µM and > 9.47 µM in experiment [6]. Moreover, the total growth inhibition concentration (TGI) was 2.99 µM and 6.61 µM in [7]; 3.49 µM and > 10 µM in [8]; 8.58 µM and > 10 µM in experiment [9]; 2.75 µM and > 5.59 µM in experiment [10].
For `COC(=O)C1=CN(CC2=CC(=O)C(C)=CC2=O)C=C(C(=O)OC)C1c1cccc(OC)c1`, the GI50 in [1] is 22.9 µM; in experiment [2], 31 µM; in [3], 25.7 µM; in experiment [4], 16.3 µM; in experiment [5], 3.11 µM; in [6], 16.6 µM. Moreover, the GI50 is 18.6 µM in experiment [7], 37 µM in experiment [8], 12.1 µM in experiment [9] and 14.4 µM in experiment [10]. Also, the TGI in experiment [1] is above 60.5 µM; in [2], above 100 µM; in [3] it was above 100 µM; in experiment [4], 31 µM; in experiment [5] it was above 100 µM; in experiment [6], 39 µM. For the same compound, the TGI in experiment [7] was 35.6 µM; in [8], above 100 µM; in experiment [9] it was 30.8 µM; in [10], 42.2 µM.
As for `Nc1ccn(C2OC(CO)C(O)C2O)c(=O)n1` (configuration not stated), the GI50 was 2.05 µM in [1]; 14.4 µM in experiment [4]; 0.0103 µM and 0.0148 µM in experiment [5]; 0.103 µM and 0.285 µM and 0.976 µM in [7]; 2.01 µM in [8]; 1.01 µM in experiment [9]. Besides, the GI50 in [10] was 2.89 µM. Besides, the total growth inhibition concentration (TGI) in experiment [1] is > 100 µM and 457 µM and > 500 µM; in [2], above 500 µM; in [3], above 500 µM; in experiment [4], above 500 µM; in experiment [6] it was above 500 µM; in [8], above 500 µM. This compound also gave a TGI in experiment [9] above 500 µM.
Turning to `COC(=O)C1=C(C(=O)OC)C2=S(SC3=C2CCCC3)S1` (configuration not stated), the TGI in [1] was above 100 µM; in experiment [2], 62.7 µM; in experiment [3], above 100 µM; in experiment [4], above 100 µM; in experiment [5] it was above 100 µM; in experiment [6] it was 46.6 µM. Also, the TGI in experiment [7] was above 100 µM; in experiment [8] it was 87.8 µM; in experiment [9] it was above 100 µM; in experiment [10], 4.71 µM.
For `COC(=O)C(C)NC(=O)C(CCSC)NC(=O)C(Cc1ccccc1)NC(=O)OC(C)(C)C` (stereo not drawn) (Boc-Phe-Met-Ala-OMe; configuration not given here), the GI50 in experiment [1] is 25.4 mg/L; in [2] it was 99.7 mg/L; in [5], 18.6 mg/L; in [9], 42.3 mg/L. Moreover, the TGI in experiment [1] is 71.8 µg/mL and > 100 µM; in experiment [2], above 100 µM; in experiment [3], above 100 µM; in experiment [4], above 100 µM; in experiment [5], 40.2 µg/mL and > 100 µM; in experiment [6], above 100 µM. In addition, the total growth inhibition concentration (TGI) in [7], in experiment [8], in experiment [9] and in experiment [10] was above 100 µM in each case.
On to `CC1(C)N=C(N)N=C(N)N1c1ccc(CCCCc2ccc(Cl)c(S(=O)(=O)F)c2)c(Cl)c1`, for which the GI50 is 0.306 µM in experiment [1]; 10.4 µM in experiment [2]; 4.51 µM in [3]; 3.78 µM in experiment [4]; 0.622 µM in experiment [5]; 0.597 µM in [6]. The GI50 in experiment [7] was 0.756 µM; in [8], 0.264 µM; in [9], 0.509 µM; in experiment [10] it was 0.471 µM. Further, the TGI in experiment [1] is 16.2 µM; in experiment [2], above 52.5 µM; in experiment [3], 49.7 µM; in [4], 18.4 µM; in experiment [5] it was 14.8 µM; in experiment [6], above 100 µM. Also, the TGI was above 41.2 µM in experiment [7], 15.7 µM in [8], 15.9 µM in experiment [9] and 11.8 µM in experiment [10].
